Like-named read-outs stand apart in the source and are kept apart here.
Columns and labels:
Assay in all cases: SelectScreen kinase specificity survey
Type in all cases: biochemical
INSRR (IRR) = target: T1, INSRR (IRR) (Homo sapiens, UniProt P14616); conditions: estimated, abridged dose response curve, read-out: Kinase inhibitory activity EC50
T1 construct: purchased Invitrogen (SelectScreen platform)
Outline: (§1)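 Specificity was surveyed across 230 kinases using kinase-matched substrate/optical reporter pairs and 100 micromolar ATP. EC50 comes from a 4-parameter Hill fit of an abridged curve.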

ADRBK1 (BARK1, GRK2) = target: T2, ADRBK1 (BARK1, GRK2) (Homo sapiens, UniProt P25098)
T2 construct: purchased Invitrogen (SelectScreen platform)
Outline: as §1

STK23 (MSSK1) = target: T3, STK23 (MSSK1) (Homo sapiens, UniProt Q9UPE1); conditions: estimated, abridged dose response curve, read-out: Kinase inhibitory activity EC50
T3 construct: purchased Invitrogen, Inc. (SelectScreen service)
T3 sequence (Q9UPE1 whole entry): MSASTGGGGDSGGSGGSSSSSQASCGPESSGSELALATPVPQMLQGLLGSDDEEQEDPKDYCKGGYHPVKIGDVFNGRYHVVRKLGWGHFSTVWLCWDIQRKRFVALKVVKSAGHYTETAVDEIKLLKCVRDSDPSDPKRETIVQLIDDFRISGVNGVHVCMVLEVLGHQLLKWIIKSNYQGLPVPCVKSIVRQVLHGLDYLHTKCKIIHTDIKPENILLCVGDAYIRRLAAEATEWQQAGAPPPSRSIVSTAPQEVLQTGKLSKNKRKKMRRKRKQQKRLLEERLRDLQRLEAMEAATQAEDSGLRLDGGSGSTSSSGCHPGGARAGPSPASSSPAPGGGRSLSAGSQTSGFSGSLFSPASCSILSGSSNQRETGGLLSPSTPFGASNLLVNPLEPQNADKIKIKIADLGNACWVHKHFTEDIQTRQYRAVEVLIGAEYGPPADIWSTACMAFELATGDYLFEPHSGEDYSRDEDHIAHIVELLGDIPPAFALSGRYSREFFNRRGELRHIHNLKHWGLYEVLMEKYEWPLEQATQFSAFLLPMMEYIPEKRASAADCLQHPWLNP
Outline: as §1

PRKACA (PKA, PKACA) = target: T4, PRKACA (PKA, PKACA) (Homo sapiens, UniProt P17612); conditions: estimated, abridged dose response curve, read-out: Kinase inhibitory activity EC50
T4 construct: purchased Invitrogen (SelectScreen platform)
Outline: as §1

AXL = target: T5, AXL (Homo sapiens, UniProt P30530); conditions: estimated, abridged dose response curve, read-out: Kinase inhibitory activity EC50
T5 construct: purchased Invitrogen (SelectScreen service)
Outline: as §1

FLT4 (VEGFR3) = target: T6, FLT4 (VEGFR3) (Homo sapiens, UniProt P35916); conditions: estimated, abridged dose response curve, read-out: Kinase inhibitory activity EC50
T6 construct: purchased Invitrogen, Inc. (SelectScreen platform)
T6 sequence (P35916 25-1363): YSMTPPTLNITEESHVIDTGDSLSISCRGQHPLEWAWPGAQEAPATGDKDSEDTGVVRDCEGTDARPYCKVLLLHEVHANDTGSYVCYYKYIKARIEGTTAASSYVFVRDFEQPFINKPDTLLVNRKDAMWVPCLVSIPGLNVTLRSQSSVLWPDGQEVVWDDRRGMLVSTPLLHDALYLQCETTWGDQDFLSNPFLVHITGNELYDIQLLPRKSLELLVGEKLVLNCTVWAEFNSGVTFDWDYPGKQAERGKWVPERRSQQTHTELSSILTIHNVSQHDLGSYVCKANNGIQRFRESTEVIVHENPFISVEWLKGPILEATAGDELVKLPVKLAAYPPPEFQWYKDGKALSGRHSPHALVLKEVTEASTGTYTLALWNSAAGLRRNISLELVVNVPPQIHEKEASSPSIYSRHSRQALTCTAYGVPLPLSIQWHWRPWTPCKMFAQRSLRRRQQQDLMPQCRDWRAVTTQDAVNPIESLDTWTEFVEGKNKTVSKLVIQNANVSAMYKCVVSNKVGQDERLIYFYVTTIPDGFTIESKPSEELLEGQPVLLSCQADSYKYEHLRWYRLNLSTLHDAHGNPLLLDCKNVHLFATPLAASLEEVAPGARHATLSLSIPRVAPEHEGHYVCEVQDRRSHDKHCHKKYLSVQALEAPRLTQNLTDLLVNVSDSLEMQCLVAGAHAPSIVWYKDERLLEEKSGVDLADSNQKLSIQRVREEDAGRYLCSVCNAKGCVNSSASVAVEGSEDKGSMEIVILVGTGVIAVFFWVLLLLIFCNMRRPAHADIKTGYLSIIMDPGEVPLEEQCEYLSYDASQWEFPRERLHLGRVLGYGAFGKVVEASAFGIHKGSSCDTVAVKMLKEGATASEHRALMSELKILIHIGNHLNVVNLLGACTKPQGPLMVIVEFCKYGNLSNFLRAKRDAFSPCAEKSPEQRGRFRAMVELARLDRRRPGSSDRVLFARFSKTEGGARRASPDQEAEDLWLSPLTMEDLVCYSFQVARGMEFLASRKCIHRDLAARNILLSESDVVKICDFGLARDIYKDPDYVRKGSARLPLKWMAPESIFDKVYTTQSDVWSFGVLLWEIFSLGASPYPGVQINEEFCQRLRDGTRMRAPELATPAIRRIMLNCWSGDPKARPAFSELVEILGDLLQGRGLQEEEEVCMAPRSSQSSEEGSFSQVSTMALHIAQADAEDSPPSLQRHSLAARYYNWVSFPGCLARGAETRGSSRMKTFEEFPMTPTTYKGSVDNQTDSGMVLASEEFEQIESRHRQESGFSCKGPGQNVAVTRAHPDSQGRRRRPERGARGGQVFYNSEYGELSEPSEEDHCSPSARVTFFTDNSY
Outline: as §1

MAPK8 (JNK1) = target: T7, MAPK8 (JNK1) (Homo sapiens, UniProt P45983); conditions: estimated, abridged dose response curve, read-out: Kinase inhibitory activity EC50
T7 construct: purchased Invitrogen, Inc. (SelectScreen service)
T7 sequence (P45983 whole entry): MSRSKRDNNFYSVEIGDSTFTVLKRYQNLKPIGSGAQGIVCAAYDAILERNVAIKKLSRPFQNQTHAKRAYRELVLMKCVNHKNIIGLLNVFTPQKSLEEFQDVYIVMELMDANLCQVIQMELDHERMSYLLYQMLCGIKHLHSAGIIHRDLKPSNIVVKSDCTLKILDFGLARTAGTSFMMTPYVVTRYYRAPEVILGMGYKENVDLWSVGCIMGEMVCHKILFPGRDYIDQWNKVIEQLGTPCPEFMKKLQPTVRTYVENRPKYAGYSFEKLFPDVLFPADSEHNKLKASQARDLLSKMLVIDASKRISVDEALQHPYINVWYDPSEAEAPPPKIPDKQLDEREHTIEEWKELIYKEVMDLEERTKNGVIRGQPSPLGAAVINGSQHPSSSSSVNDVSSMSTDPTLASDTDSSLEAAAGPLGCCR
Outline: as §1

STK3 (MST2) = target: T8, STK3 (MST2) (Homo sapiens, UniProt Q13188); conditions: estimated, abridged dose response curve, read-out: Kinase inhibitory activity EC50
T8 construct: purchased Invitrogen (SelectScreen platform)
T8 sequence (Q13188 whole entry): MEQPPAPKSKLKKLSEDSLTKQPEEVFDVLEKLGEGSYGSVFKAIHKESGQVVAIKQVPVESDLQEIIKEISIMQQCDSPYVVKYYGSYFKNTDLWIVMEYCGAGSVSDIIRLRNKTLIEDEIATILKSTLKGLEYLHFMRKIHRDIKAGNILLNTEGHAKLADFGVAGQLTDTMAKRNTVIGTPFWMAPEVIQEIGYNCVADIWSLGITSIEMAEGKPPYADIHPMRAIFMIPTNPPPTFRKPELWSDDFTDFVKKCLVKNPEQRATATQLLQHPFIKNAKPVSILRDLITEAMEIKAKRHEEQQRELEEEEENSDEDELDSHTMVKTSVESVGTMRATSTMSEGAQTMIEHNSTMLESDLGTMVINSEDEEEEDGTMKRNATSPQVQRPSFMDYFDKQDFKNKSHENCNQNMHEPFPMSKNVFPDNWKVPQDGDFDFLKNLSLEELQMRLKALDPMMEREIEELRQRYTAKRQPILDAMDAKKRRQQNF
Outline: as §1

CAMK2A (CaMKII alpha) = target: T9, CAMK2A (CaMKII alpha) (Homo sapiens, UniProt Q9UQM7); conditions: estimated, abridged dose response curve, read-out: Kinase inhibitory activity EC50
T9 construct: purchased Invitrogen, Inc. (SelectScreen platform)
Outline: as §1

EPHB3 = target: T10, EPHB3 (Homo sapiens, UniProt P54753); conditions: estimated, abridged dose response curve, read-out: Kinase inhibitory activity EC50
T10 construct: purchased Invitrogen (SelectScreen service)
Outline: as §1

CSNK1A1 (CK1 alpha 1) = target: T11, CSNK1A1 (CK1 alpha 1) (Homo sapiens, UniProt P48729); conditions: estimated, abridged dose response curve, read-out: Kinase inhibitory activity EC50
T11 construct: purchased Invitrogen (SelectScreen platform)
T11 sequence (P48729 whole entry): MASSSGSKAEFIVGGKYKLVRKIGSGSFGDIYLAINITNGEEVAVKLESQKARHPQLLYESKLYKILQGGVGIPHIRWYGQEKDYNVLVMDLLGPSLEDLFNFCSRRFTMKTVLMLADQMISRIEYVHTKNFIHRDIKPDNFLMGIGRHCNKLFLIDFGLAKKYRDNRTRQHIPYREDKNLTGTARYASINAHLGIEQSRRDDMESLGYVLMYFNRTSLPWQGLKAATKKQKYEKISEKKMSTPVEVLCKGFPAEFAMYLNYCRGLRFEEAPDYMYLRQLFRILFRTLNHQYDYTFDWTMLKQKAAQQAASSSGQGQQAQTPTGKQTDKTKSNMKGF
Outline: as §1

RET = target: T12, RET (Homo sapiens, UniProt P07949); conditions: estimated, abridged dose response curve, read-out: Kinase inhibitory activity EC50
T12 construct: purchased Invitrogen (SelectScreen)
Outline: as §1

AURKA (Aurora A) = target: T13, AURKA (Aurora A) (Homo sapiens, UniProt O14965); conditions: estimated, abridged dose response curve, read-out: Kinase inhibitory activity EC50
T13 construct: purchased Invitrogen, Inc. (SelectScreen service)
Outline: as §1

FGFR4 = target: T14, FGFR4 (Homo sapiens, UniProt P22455); conditions: estimated, abridged dose response curve, read-out: Kinase inhibitory activity EC50
T14 construct: purchased Invitrogen (SelectScreen platform)
Outline: as §1

PDGFRB (PDGFR beta) = target: T15, PDGFRB (PDGFR beta) (Homo sapiens, UniProt P09619); conditions: estimated, abridged dose response curve, read-out: Kinase inhibitory activity EC50
T15 construct: purchased Invitrogen (SelectScreen platform)
T15 sequence (P09619 33-1106): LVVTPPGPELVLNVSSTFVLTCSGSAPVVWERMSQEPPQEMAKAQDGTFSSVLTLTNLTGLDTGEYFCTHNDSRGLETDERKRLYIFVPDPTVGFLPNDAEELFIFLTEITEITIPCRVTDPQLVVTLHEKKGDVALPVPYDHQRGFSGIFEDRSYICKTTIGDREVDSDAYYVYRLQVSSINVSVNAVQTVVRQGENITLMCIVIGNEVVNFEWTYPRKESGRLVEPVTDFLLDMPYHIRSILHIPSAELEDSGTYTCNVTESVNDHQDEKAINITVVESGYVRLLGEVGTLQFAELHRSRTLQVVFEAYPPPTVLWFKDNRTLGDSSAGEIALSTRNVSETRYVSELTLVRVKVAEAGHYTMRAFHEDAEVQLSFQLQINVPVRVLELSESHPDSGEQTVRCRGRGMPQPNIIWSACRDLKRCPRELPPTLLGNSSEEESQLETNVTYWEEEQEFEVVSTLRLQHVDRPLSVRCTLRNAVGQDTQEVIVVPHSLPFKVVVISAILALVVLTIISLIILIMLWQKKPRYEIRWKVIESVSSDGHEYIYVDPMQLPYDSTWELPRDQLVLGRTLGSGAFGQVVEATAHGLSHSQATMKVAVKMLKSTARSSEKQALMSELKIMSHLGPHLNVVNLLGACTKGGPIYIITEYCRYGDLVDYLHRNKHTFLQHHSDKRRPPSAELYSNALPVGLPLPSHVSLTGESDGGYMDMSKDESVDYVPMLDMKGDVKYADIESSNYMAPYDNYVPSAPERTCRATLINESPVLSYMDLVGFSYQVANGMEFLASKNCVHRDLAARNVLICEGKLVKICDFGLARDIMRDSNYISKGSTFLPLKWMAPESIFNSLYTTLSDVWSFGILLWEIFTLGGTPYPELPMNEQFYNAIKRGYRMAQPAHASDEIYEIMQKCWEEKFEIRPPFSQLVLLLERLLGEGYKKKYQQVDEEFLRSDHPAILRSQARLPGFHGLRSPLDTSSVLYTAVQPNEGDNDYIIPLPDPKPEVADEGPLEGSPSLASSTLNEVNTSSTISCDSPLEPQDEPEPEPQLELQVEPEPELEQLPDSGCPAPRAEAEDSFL
Outline: as §1

MYLK2 (skMLCK) = target: T16, MYLK2 (skMLCK) (Homo sapiens, UniProt Q9H1R3); conditions: estimated, abridged dose response curve; for EC50: read-out: Kinase inhibitory activity EC50
T16 construct: purchased Invitrogen, Inc. (SelectScreen platform)
Outline: as §1

ACVR1B (ALK4) = target: T17, ACVR1B (ALK4) (Homo sapiens, UniProt P36896); conditions: estimated, abridged dose response curve, read-out: Kinase inhibitory activity EC50
T17 construct: purchased Invitrogen, Inc. (SelectScreen platform)
Outline: as §1

FES (FPS) = target: T18, FES (FPS) (Homo sapiens, UniProt P07332); conditions: estimated, abridged dose response curve, read-out: Kinase inhibitory activity EC50
T18 construct: purchased Invitrogen (SelectScreen service)
Outline: as §1

RAF1 (cRAF) Y340D Y341D = target: T19, RAF1 (cRAF) Y340D Y341D (Homo sapiens, UniProt P04049, Y340D/Y341D); conditions: estimated, abridged dose response curve, read-out: Kinase inhibitory activity EC50
T19 construct: purchased Invitrogen, Inc. (SelectScreen platform)
Outline: as §1

MAPKAPK5 (PRAK) = target: T20, MAPKAPK5 (PRAK) (Homo sapiens, UniProt Q8IW41); conditions: estimated, abridged dose response curve, read-out: Kinase inhibitory activity EC50
T20 construct: purchased Invitrogen, Inc. (SelectScreen platform)
Outline: as §1

NTRK1 (TRKA) = target: T21, NTRK1 (TRKA) (Homo sapiens, UniProt P04629)
T21 construct: purchased Invitrogen (SelectScreen)
Outline: as §1

CAMK2D (CaMKII delta) = target: T22, CAMK2D (CaMKII delta) (Homo sapiens, UniProt Q13557); conditions: estimated, abridged dose response curve, read-out: Kinase inhibitory activity EC50
T22 construct: purchased Invitrogen, Inc. (SelectScreen platform)
Outline: as §1

DCAMKL2 (DCK2) = target: T23, DCAMKL2 (DCK2) (Homo sapiens, UniProt Q8N568); conditions: estimated, abridged dose response curve, read-out: Kinase inhibitory activity EC50
T23 construct: purchased Invitrogen, Inc. (SelectScreen platform)
Outline: as §1

IGF1R = target: T24, IGF1R (Homo sapiens, UniProt P08069); conditions: estimated, abridged dose response curve, read-out: Kinase inhibitory activity EC50
T24 construct: purchased Invitrogen (SelectScreen platform)
Outline: as §1

MST4 = target: T25, MST4 (Homo sapiens, UniProt Q9P289); conditions: estimated, abridged dose response curve, read-out: Kinase inhibitory activity EC50
T25 construct: purchased Invitrogen (SelectScreen platform)
T25 sequence (Q9P289 whole entry): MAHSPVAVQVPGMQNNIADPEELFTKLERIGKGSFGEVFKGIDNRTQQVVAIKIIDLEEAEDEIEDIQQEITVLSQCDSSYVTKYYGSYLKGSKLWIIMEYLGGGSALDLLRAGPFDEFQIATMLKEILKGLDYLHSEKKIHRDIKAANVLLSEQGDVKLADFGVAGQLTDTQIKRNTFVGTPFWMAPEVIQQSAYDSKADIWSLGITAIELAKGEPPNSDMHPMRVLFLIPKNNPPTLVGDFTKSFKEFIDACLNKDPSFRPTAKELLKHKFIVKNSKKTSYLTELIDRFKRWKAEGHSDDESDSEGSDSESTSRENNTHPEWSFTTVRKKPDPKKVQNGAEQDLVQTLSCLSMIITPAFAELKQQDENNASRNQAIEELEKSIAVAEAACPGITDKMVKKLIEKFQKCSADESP
Outline: as §1

Structure (SMILES)	EC50 (INSRR (IRR))	EC50 (STK23 (MSSK1))	EC50 (PRKACA (PKA, PKACA))	EC50 (AXL)	EC50 (FLT4 (VEGFR3))	EC50 (MAPK8 (JNK1))	EC50 (STK3 (MST2))	EC50 (CAMK2A (CaMKII alpha))	EC50 (EPHB3)	EC50 (CSNK1A1 (CK1 alpha 1))	EC50 (RET)	EC50 (AURKA (Aurora A))	EC50 (FGFR4)	EC50 (PDGFRB (PDGFR beta))	EC50 (MYLK2 (skMLCK))	EC50 (ACVR1B (ALK4))	EC50 (FES (FPS))	EC50 (RAF1 (cRAF) Y340D Y341D)	EC50 (MAPKAPK5 (PRAK))	EC50 (CAMK2D (CaMKII delta))	further results
CN(C)CCCNc1ccc2ncn3c4ccc5[nH]ncc5c4c(=O)c1c23 [Compound (IV)]	1.15 µM	> 5 µM	> 5 µM	4.44 µM	1.49 µM	> 5 µM	> 5 µM	0.789 µM	> 5 µM	> 5 µM	0.587 µM	> 5 µM	> 5 µM	0.278 µM	0.015 µM	> 5 µM	2.25 µM	> 5 µM	> 5 µM	0.218 µM	EC50 (ADRBK1 (BARK1, GRK2); ADRBK1 (BARK1, GRK2), estimated, abridged dose response curve, read-out: Kinase inhibitory activity EC50): > 5 µM; Kinase inhibitory activity EC50 (MYLK2 (skMLCK)): low nM; EC50 (NTRK1 (TRKA); NTRK1 (TRKA), estimated, abridged dose response curve, read-out: Kinase inhibitory activity EC50): 0.438 µM; EC50 (DCAMKL2 (DCK2)): > 5 µM; EC50 (IGF1R): 1.56 µM; EC50 (MST4): > 5 µM
CCN(CC)CCNc1ccc2ncn3c4ccc(O)cc4c(=O)c1c23 [Symadex, 5-(2-(diethylamino)ethylamino)-8-hydroxy-6H-imidazo[4,5,1-de]acridin-6-one, reference compound]	> 5 µM	> 5 µM	> 5 µM	3.77 µM	3.96 µM	> 5 µM	> 5 µM	> 5 µM	> 5 µM	3.48 µM	1.12 µM	> 5 µM	> 5 µM	1.79 µM	0.041 µM	> 5 µM	1.05 µM	> 5 µM	> 5 µM	2.06 µM	EC50 (ADRBK1 (BARK1, GRK2)): > 5 µM; EC50 (NTRK1 (TRKA)): 1.43 µM; EC50 (DCAMKL2 (DCK2)): > 5 µM; EC50 (IGF1R): > 5 µM; EC50 (MST4): 1.58 µM

From patent US20100292231A1, “Indazole Compounds for Treating Inflammatory Disorders, Demyelinating Disorders and Cancers” (priority 2007, published 2010)
